The text below walks through data of patent US20240132431A1, “METHOD FOR ALKYLATING ACIDIC FUNCTIONAL GROUP” (Chugai Seiyaku Kabushiki Kaisha, priority 2021, published 2024).

The target of the test is T1, Bcl-2 protein (Recombinant Human Bcl-2 Protein) (Homo sapiens, UniProt P10415).
T1 construct: purchased Novus NBP2-34889
Description: Binding evaluation of mixture library compounds to Bcl-2 using AS-MS (affinity selection mass spectrometry). The following applies: for ASMS ratio (%) n = 1 / ASMS ratio (%) n = 2: ASMS Ratio(%)=(A−C)/B×100; for ASMS ratio (%) n = 1: replicate n = 1; for ASMS ratio (%) n = 2: replicate n = 2. Put shortly:
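Readout is ASMS Ratio (%), (A−C)/B×100, from reversed-phase LC/MS of SEC-passed extracts, with protein-free unfiltered standard (B) and protein-free SEC blank (C). Recombinant human Bcl-2 at 20 μM final met ~1200 pooled compounds at […] each for 1 h, 23° C., dark, in Tris-HCl pH 7.4 buffer.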

Where [1] appears, read: AS-MS on the mixture of 1200 library compounds.
Setting [2] is: AS-MS, mixture of 1200 compounds, Bcl-2.

T1 sequence (P10415 whole entry): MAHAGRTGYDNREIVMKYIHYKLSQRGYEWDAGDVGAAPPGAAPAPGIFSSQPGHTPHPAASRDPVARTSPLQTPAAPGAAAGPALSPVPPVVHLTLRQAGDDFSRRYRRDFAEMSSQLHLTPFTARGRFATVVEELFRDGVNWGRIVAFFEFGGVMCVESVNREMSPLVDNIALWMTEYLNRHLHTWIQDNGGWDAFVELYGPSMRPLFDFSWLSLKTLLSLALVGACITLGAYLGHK

With `CCOc1cncc(-c2cc(C(=O)N3CCN(c4ccc(C(=O)NS(=O)(=O)C(C)(C)C)nn4)CC3)cc(C(C)(C)C)c2)c1` [B2L016-01, 6-[4-[3-tert-Butyl-5-(5-ethoxypyridin-3-yl)benzoyl]piperazin-1-yl]-N-tert-butylsulfonylpyridazine-3-carboxamide], the “ASMS ratio (%)” value (n = 1) is on record as 0.0% and the “ASMS ratio (%)” value (n = 2) was −5.4%. Regarding `CCOc1cncc(C#Cc2cncc(C(=O)N3CCN(c4ccc(C(=O)Nc5ccc(OC)cc5)nn4)CC3)c2)c1` [B1O010-01, 6-[4-[5-[2-(5-Ethoxypyridin-3-yl)ethynyl]pyridine-3-carbonyl]piperazin-1-yl]-N-(4-methoxyphenyl)pyridazine-3-carboxamide], under setting [1], the “ASMS ratio (%) n = 1” value turned out to be 0.0% and the “ASMS ratio (%) n = 2” value amounted to 0.0%. `CCOc1cccc(-c2cc(CN3CCN(c4ccc(C(=O)NS(=O)(=O)CC56CC7CC(CC(C7)C5)C6)cc4)CC3)cc(OC(F)(F)F)c2)c1` [B2A063-01, N-(1-Adamantylmethylsulfonyl)-4-[4-[[3-(3-ethoxyphenyl)-5-(trifluoromethoxy)phenyl]methyl]piperazin-1-yl]benzamide]: under “AS-MS, mixture library, Bcl-2”, the “ASMS ratio (%) n = 1” value came to 0.5% and the “ASMS ratio (%) n = 2” value is recorded as 3.3%. With `CCOc1cncc(-c2ccc(CN3CCN(c4ccc(C(=O)NS(=O)(=O)CCC(F)(F)F)cc4)CC3)cc2F)c1` [B2N052-01, 4-[4-[[4-(5-Ethoxypyridin-3-yl)-3-fluorophenyl]methyl]piperazin-1-yl]-N-(3,3,3-trifluoropropylsulfonyl)benzamide], the “ASMS ratio (%)” value is 0.0% (n = 1) and −0.5% (n = 2). As for `CCOc1cncc(-c2ccc(CN3CCN(c4ccc(C(=O)N(CC)CC)nn4)CC3)c3ccccc23)c1` [B4J092-01, 6-[4-[[4-(5-Ethoxypyridin-3-yl)naphthalen-1-yl]methyl]piperazin-1-yl]-N,N-diethylpyridazine-3-carboxamide], under “AS-MS, mixture library, Bcl-2”, the “ASMS ratio (%) n = 1” value is reported as −1.4% and the “ASMS ratio (%) n = 2” value came out at 0.3%. Regarding `CCOc1cccc(C#Cc2ccccc2C(=O)N2CCN(c3ccc(C(=O)NS(=O)(=O)CC45CC6CC(CC(C6)C4)C5)nn3)CC2)c1` [B2A007-01, N-(1-Adamantylmethylsulfonyl)-6-[4-[2-[2-(3-ethoxyphenyl)ethynyl]benzoyl]piperazin-1-yl]pyridazine-3-carboxamide], under “AS-MS, mixture library, Bcl-2”, the “ASMS ratio (%) n = 2” value is listed as 0.0%. On to `CCOc1cccc(C#Cc2ccccc2C(=O)N2CCN(c3ccc(C(=O)Nc4ccc(OC)cc4)cc3)CC2)c1` [B1O029-01, 4-[4-[2-[2-(3-Ethoxyphenyl)ethynyl]benzoyl]piperazin-1-yl]-N-(4-methoxyphenyl)benzamide], for which, under setting [1], the “ASMS ratio (%) n = 1” value is recorded as 0.0% and the “ASMS ratio (%) n = 2” value came out at 0.0%. `CCOc1cncc(-c2cnn(-c3cc(C(=O)N4CCN(c5ccc(C(=O)NS(=O)(=O)CC67CC8CC(CC(C8)C6)C7)nn5)CC4)cc(C(F)(F)F)c3)c2)c1` [B2A022-01, N-(1-Adamantylmethylsulfonyl)-6-[4-[3-[4-(5-ethoxypyridin-3-yl)pyrazol-1-yl]-5-(trifluoromethyl)benzoyl]piperazin-1-yl]pyridazine-3-carboxamide]: under “AS-MS, mixture library, Bcl-2”, the “ASMS ratio (%) n = 1” value is recorded as 27.0% and the “ASMS ratio (%) n = 2” value was determined as 3.7%. The matching figures for `CCOc1cccc(-c2ccc(C(=O)N3CCN(c4ccc(C(=O)NS(=O)(=O)CC56CC7CC(CC(C7)C5)C6)nn4)CC3)c3ccccc23)c1` [B2A013-01, N-(1-Adamantylmethylsulfonyl)-6-[4-[4-(3-ethoxyphenyl)naphthalene-1-carbonyl]piperazin-1-yl]pyridazine-3-carboxamide]: 11.6% and 17.8%. For the molecule `CCOc1cncc(-c2ccc(CN3CCN(c4ccc(C(=O)N(CC)CC)cc4)CC3)c(CC)c2)c1` [B4J050-01, 4-[4-[[4-(5-Ethoxypyridin-3-yl)-2-ethylphenyl]methyl]piperazin-1-yl]-N,N-diethylbenzamide], under setting [1], the “ASMS ratio (%) n = 1” value worked out at 2.1% and the “ASMS ratio (%) n = 2” value was determined as 0.6%. Regarding `CCOc1cncc(-c2ccc(C(=O)N3CCN(c4ccc(C(=O)Nc5ccc(OC)cc5)cc4)CC3)c3ccccc23)c1` [B1O036-01, 4-[4-[4-(5-Ethoxypyridin-3-yl)naphthalene-1-carbonyl]piperazin-1-yl]-N-(4-methoxyphenyl)benzamide], under setting [1], the “ASMS ratio (%) n = 1” value stood at 4.8% and the “ASMS ratio (%) n = 2” value came out at 0.9%.

Regarding `CCOc1cncc(C#Cc2cncc(C(=O)N3CCN(c4ccc(C(=O)NS(=O)(=O)C(C)(C)C)nn4)CC3)c2)c1` [B2L010-01, N-tert-Butylsulfonyl-6-[4-[5-[2-(5-ethoxypyridin-3-yl)ethynyl]pyridine-3-carbonyl]piperazin-1-yl]pyridazine-3-carboxamide], the “ASMS ratio (%)” value reads like this: (n = 1) 0.0%; (n = 2) 0.0%. Regarding `CCOc1cccc(-c2cc(C(=O)N3CCN(c4ccc(C(=O)NCC(F)(F)F)nn4)CC3)cc(C(F)(F)F)c2)c1` [B1K017-01, 6-[4-[3-(3-Ethoxyphenyl)-5-(trifluoromethyl)benzoyl]piperazin-1-yl]-N-(2,2,2-trifluoroethyl)pyridazine-3-carboxamide], under setting [2], the “ASMS ratio (%) n = 1” value is on record as 0.0% and the “ASMS ratio (%) n = 2” value amounted to 0.0%. For `CCOc1cncc(-c2cc(OC)c(CN3CCN(c4ccc(C(=O)NS(=O)(=O)c5ccc(NCCSc6ccccc6)c(C(F)(F)F)c5)nn4)CC3)c(OC)c2)c1` [B2R086-01], the “ASMS ratio (%)” value is 0.0% (n = 1) and 0.0% (n = 2). Regarding `CCOc1cncc(C#Cc2ccccc2CN2CCN(c3ccc(C(=O)NS(=O)(=O)CCC(F)(F)F)cc3)CC2)c1` [B2N070-01, 4-[4-[[2-[2-(5-Ethoxypyridin-3-yl)ethynyl]phenyl]methyl]piperazin-1-yl]-N-(3,3,3-trifluoropropylsulfonyl)benzamide], the “ASMS ratio (%)” value came to 0.0% (n = 1) and 0.0% (n = 2). Regarding `CCOc1cccc(-c2ccc(C(=O)N3CCN(c4ccc(C(=O)NS(C)(=O)=O)nn4)CC3)cc2C)c1` [B2I003-01, 6-[4-[4-(3-Ethoxyphenyl)-3-methylbenzoyl]piperazin-1-yl]-N-methylsulfonylpyridazine-3-carboxamide], for the setting “AS-MS, mixture library, Bcl-2”, the “ASMS ratio (%) n = 1” value is recorded as 0.0% and the “ASMS ratio (%) n = 2” value is 0.0%. Consider `CCOc1cccc(-c2ccc(C(=O)N3CCN(c4ccc(C(=O)NCC(F)(F)F)nn4)CC3)c3ccccc23)c1` [B1K013-01, 6-[4-[4-(3-Ethoxyphenyl)naphthalene-1-carbonyl]piperazin-1-yl]-N-(2,2,2-trifluoroethyl)pyridazine-3-carboxamide], for which, under setting [2], the “ASMS ratio (%) n = 1” value was determined as 0.0% and the “ASMS ratio (%) n = 2” value is reported as 1.4%. In the case of `CCOc1cccc(-c2ccc(CN3CCN(c4ccc(C(=O)NS(=O)(=O)CC56CC7CC(CC(C7)C5)C6)cc4)CC3)cc2C)c1` [B2A047-01, N-(1-Adamantylmethylsulfonyl)-4-[4-[[4-(3-ethoxyphenyl)-3-methylphenyl]methyl]piperazin-1-yl]benzamide], under “AS-MS, mixture library, Bcl-2”, the “ASMS ratio (%) n = 1” value amounted to 9.7% and the “ASMS ratio (%) n = 2” value is 0.4%.

As to `CCOc1cncc(-c2cc(C(=O)N3CCN(c4ccc(C(=O)NS(=O)(=O)C(C)(C)C)cc4)CC3)cc(C(C)(C)C)c2)c1` [B2L038-01, 4-[4-[3-tert-Butyl-5-(5-ethoxypyridin-3-yl)benzoyl]piperazin-1-yl]-N-tert-butylsulfonylbenzamide], the “ASMS ratio (%)” value by setting is: (n = 1) 0.0%; (n = 2) 0.0%.
